Patent publication US20210077420A1, “Methods of Treatment of Gout” (priority 2017, published 2021)
Each block holds one compound with its values, some of them ahead of it.

Legend:
Assay type in all cases: physicochemical
[1] = Solubility enhancement of MSU crystals in aqueous NaCl solution (Example 1); details: 16 h; for % vs control: 2.5 mL enhancer + 2.5 mL NaCl solution, control (water only) = 100%; for Concentration of urate: 2.5 mL enhancer + 2.5 mL NaCl solution (8.2 g/L), about 8 mg MSU, 25 °C, mixes equal portions by volume, control 0.043
Description: A NaCl solution was prepared by dissolving 8.2 g of NaCl in 1 L of deionised water. Approximately 8 mg of monosodium urate crystals was then suspended in 2.5 mL of the NaCl solution. A 2.5 mL amount of a solubility enhancer was then added to the suspension of monosodium urate crystals. In the case of the solubility enhancer being a mix of components, equal portions by volume of each component was added. This was then mixed for about 16 hours on a roller mixer.
A sample of the supernatant was then taken, filtered using standard techniques (e.g. a syringe filter), and analysed by high-performance liquid chromatography (HPLC) to determine the concentration uric acid/MSU present in solution.
All samples were analysed using a HPLC system equipped with a variable wavelength UV detector and a reversed phase column (5 μm ODS2, 4.6 mm×150 mm, Waters Spherisorb). The mobile phase was 35 mM sodium acetate in water with pH adjusted to 5.0 using acetic acid. The flow rate was set at 1 mL/min and UV detection at a wavelength of 292 nm. Sample injection volume was 50.0 μL and all operations were carried out at 25° C. Standard solutions of MSU were made up in the range of 15-250 μg/mL and analysed as above.

[2] = Solubility enhancement of MSU crystals in phosphate buffered saline (Examples 2A, 2B)
Description: A phosphate buffered saline diluent was prepared by dissolving 8.2 g of NaCl and 0.68 g of KH2PO4 in 500 mL of deionised water in a 1 L flask. An NaOH solution was prepared by dissolving 0.399 g of NaOH in 100 mL of deionised water. 39.1 mL of the 0.1 M NaOH solution was then added to the 1 L flask and the volume was made up to 1 L with deionised water. The pH was adjusted to 7.4.
Approximately 5 mg of monosodium urate crystals was then suspended in 4.75 mL of the phosphate buffered saline diluent. A 0.25 mL amount of a solubility enhancer was then added to the suspension of monosodium urate crystals. […] In the case of the solubility enhancer being a mix of components, equal portions by volume of each component was added, unless indicated otherwise. This was then stirred for about 16 hours.
A sample of the supernatant was then taken, filtered using standard techniques (e.g. a syringe filter), and analysed by high-performance liquid chromatography (HPLC) to determine the concentration of uric acid/urate present in solution.

[3] = as above; details: Table 3
[4] = Table 2, 5% by volume solubility enhancer in PBS pH 7.4, control = 100%
[5] = 0.1% solubility enhancer in PBS
[6] = Table 3, 5% by volume solubility enhancer in PBS

Compound: CC(=O)OC/C=C(\C)CCC=C(C)C [Geranyl acetate]
% vs control [1]: 209%

Compound: O=C(O)c1ccc(O)cc1 [4-hydroxybenzoic acid]
% vs control [2, 6]: 241%
% vs control ([3]; 0.05% solubility enhancer in PBS): 160%
% vs control [3, 5]: 193%
% vs control ([3]; 1% solubility enhancer in PBS): 205%

Compound: O=C(O)/C=C/C(=O)O [Fumaric acid]
% vs control [1]: 151%

Compound: OCCO [Ethylene glycol]
% vs control [2, 4]: 112%

Compound: OCc1ccccc1 [Benzyl alcohol]
% vs control [2, 4]: 263%
% vs control ([3]; 0.5% solubility enhancer in PBS): 152%
% vs control ([3]; 2% solubility enhancer in PBS): 170%
% vs control ([3]; 3% solubility enhancer in PBS): 197%
% vs control ([3]; 4% solubility enhancer in PBS): 227%

Compound: O=C(O)c1ccccc1 [Benzoic acid]
% vs control [2, 6]: 189%
% vs control [3, 5]: 147%
% vs control ([3]; 1% solubility enhancer in PBS): 159%

Compound: OCc1ccc(O)cc1 [4-hydroxybenzyl alcohol]
% vs control [2, 6]: 190%
% vs control ([3]; 1% solubility enhancer in PBS): 151%

Now from value to compound:

% vs control [1]: 200%
Compound: CN1CCCC1=O [N-methylpyrrolidone]

% vs control [2, 4]: 114%
% vs control [1]: 114%
Compound: CC(O)CO (centres unmarked) [Propylene glycol]

% vs control [3, 5]: 281%
Compound: O=C(O)c1ccccc1O [Salicylic acid]

Concentration of urate [1]: 65 µg/mL
% vs control [1]: 151%
Compound: Sorbitan monooleate

Concentration of urate [1]: 57 µg/mL
Compound: Span 85

% vs control [2, 4]: 165%
% vs control [2, 6]: 113%
% vs control ([3]; 4% solubility enhancer in PBS): 111%
Compound: CC(=O)OCC(COC(C)=O)OC(C)=O [Triacetin]

% vs control [2, 4]: 114%
% vs control [1]: 149%
Compound: OCC(O)CO [Glycerol]

% vs control ([3]; 1% solubility enhancer in PBS): 118%
% vs control ([3]; 2% solubility enhancer in PBS): 119%
Compound: CCCCCCCC/C=C\CCCCCCCC(=O)O [Oleic acid]

% vs control [2, 4]: 119%
Compound: CCCCCCCC/C=C\CCCCCCCC(=O)OC [Methyl oleate]
